Results: patent US20230312582A1, “Salts Of Nitrogen-Containing Heterocyclic Compound, And Solid Forms Of Salts, Pharmaceutical Composition And Use Thereof” (Wuhan Humanwell Innovative Drug Research And Development …, priority 2020, published 2023)
Where two headings read alike, the source gives them in different places.

How the values were obtained:
[1] = Stability assay of human liver microsome; format: in vitro ADME; settings: human liver microsomes
Description: The stability of human liver microsome was detected by in vitro co-incubation of compounds with human liver microsomes. Test compounds were first prepared as 10 mM stock solutions in DMSO solvent, followed by dilution of the compounds to 0.5 mM using acetonitrile. […] The deep-well plate was taken, […] was added to each well, then 15 μL of pre-warmed 6 mM NADPH solution was added to the plate to start the reaction, and the plate was incubated at 37° C. […] The supernatant was taken after centrifugation, and added with purified water at a ratio of 1:1 for LC-MS/MS detection to obtain the ratio of peak area of compound to peak area of internal standard at each time point. […] T1/2 was calculated using Excel.

hERG channel [2] = biological target: T1, hERG channel (Homo sapiens (Human), UniProt Q12809); settings: hERG IC50 in μM divided by ATX IC50 in nM as printed
T1 sequence (Q12809 whole entry): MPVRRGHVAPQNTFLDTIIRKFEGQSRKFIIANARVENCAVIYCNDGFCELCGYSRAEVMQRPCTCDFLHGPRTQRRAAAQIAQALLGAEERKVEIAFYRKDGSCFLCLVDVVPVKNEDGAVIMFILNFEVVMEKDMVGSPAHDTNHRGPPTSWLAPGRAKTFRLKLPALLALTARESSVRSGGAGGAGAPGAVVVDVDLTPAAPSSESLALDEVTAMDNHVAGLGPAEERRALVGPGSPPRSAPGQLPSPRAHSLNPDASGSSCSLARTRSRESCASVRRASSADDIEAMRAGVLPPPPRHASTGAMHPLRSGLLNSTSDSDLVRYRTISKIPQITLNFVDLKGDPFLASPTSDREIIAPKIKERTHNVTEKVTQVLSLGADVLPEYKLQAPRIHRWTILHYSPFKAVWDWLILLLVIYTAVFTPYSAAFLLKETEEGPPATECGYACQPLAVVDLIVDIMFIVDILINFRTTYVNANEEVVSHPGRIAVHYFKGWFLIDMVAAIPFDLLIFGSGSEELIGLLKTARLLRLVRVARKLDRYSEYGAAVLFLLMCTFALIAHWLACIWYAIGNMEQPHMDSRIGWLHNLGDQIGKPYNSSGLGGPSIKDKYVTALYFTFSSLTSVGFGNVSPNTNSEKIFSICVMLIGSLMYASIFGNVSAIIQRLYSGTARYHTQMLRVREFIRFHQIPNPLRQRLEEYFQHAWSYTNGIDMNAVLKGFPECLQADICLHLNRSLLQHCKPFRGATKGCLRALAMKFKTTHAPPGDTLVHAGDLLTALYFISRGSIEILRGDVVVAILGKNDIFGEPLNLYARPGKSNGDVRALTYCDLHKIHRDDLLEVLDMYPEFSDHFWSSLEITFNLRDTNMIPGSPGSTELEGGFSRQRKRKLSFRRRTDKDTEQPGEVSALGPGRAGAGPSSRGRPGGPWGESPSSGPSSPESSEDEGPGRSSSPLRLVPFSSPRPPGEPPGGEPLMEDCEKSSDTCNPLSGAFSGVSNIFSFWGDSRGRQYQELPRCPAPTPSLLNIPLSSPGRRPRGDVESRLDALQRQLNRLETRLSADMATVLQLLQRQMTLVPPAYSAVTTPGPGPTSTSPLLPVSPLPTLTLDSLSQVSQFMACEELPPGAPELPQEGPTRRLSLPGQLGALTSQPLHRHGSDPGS
Description: (§2) Inhibitory effect of the compound on hERG was detected using automated electrophysiological patch clamp QPatch. The cells used in this assay were CHO cell lines (supplied by Sophion Bioscience, Denmark) transfected with hERG cDNA and stably expressing hERG channel at cell passage number of P24. The cells were cultured in a medium containing the following components (all purchased from Invitrogen): ham's F12 medium, 10% (v/v) inactivated fetal bovine serum, 100 μg/mL hygromycin B and 100 μg/mL Geneticin. CHO hERG cells were grown in a culture dish containing the above culture solution and cultured in an incubator containing 5% CO2 at 37° C.
(§3) Extracellular buffer (2 mM CaCl2, 1 mM MgCl2, 4 mM KCl, 145 mM NaCl, 10 mM Glucose, 10 mM HEPES, pH: about 7.4, osmotic pressure: about 305 mOsm) and intracellular buffer (5.374 mM CaCl2, 1.75 mM MgCl2, 120 mM KCl, 10 mM HEPES, 5 mM EGTA, 4 mM Na-ATP, pH: about 7.25, osmotic pressure: about 295 mOsm) were prepared. […]
(§4) The assay data were analyzed by Qpatch analysis software supplied by Sophion, Excel, Graphpad Prism and the like.

[3] = In vivo pharmacokinetic assay in rats
Description: (§1) In vivo pharmacokinetic assay in rats was performed, wherein the used rats were 6 male SD rats weighing 180-240 g and fasted overnight. […] Blood samples were centrifuged at 8000 rpm for 6 min at 4° C., and plasma was collected and stored at −20° C. The plasma at each time point was taken and added with 3-5 times of acetonitrile solution containing the internal standard for mixing, and the mixed solution was subjected to vortex mixing for 1 min, and centrifuging at 4° C. for 10 min at 13000 rpm. The supernatant was taken and added with 3 times of water for mixing. A proper amount of the mixed solution was taken for LC-MS/MS analysis. The major pharmacokinetic parameters were analyzed using WinNonlin 7.0 software and a non-compartmental model.

[4] = tested on: Bleomycin-induced IPF model; assay: Bleomycin-induced IPF model in rats; format: in vivo; settings: 30 mg/kg oral twice a day, 21 days
Description: The bleomycin-induced IPF model (idiopathic pulmonary fibrosis model) was performed at a dose of 5 U/kg using male BN rats weighing 180-240 g. […] The oral intragastric administration was performed twice a day on the second day after the modeling. The administration group was given a dose of 30 mg/kg at one time, and the vehicle control group was given blank vehicle for 21 consecutive days. During dosing, body weights were weighed every three days. On the 21st day of administration, bronchoalveolar lavage was performed 2 h after the first administration, the inflammatory cells in the lavage fluid were counted, and the relevant biomarkers in the lavage fluid supernatant were detected; after lavage, the left lung of the rat was harvested for fixation, and Masson's trichrome staining was used for pathological scoring of fibrosis and the remaining lung lobes were cryopreserved. The bronchoalveolar lavage fluid supernatant and freshly cryopreserved lung tissue of compound 3 group were taken, and the TGF-β1 protein content and total protein amount were detected by ELISA method, and the amount of TGF-β1 per mg of total protein was calculated.

[5] = biological target: ATX enzymatic activity in human plasma (Homo sapiens (Human), UniProt Q13822); assay: biochemical
Description: Whole blood from healthy volunteers was collected and anticoagulated with heparin. The blood collection tubes were centrifuged at 3000 rpm for 10 min, and plasma was taken and stored at −80° C. for later use.
The compounds were serially diluted with DMSO according to the standard concentration requirements, and then 3 μL of the compound was taken and added to a 96-well plate. 147 μL of PBS was added to each well containing 3 μL of the compound, and the mixed solution was mixed well, and then 50 μL of the mixed solution was taken out and added to a new 96-well plate. The human plasma was taken out of −80° C. refrigerator and thawed by rapid shaking in a 37° C. water bath, and 50 μL of human plasma was added to a 96-well plate containing 50 μL of diluted compounds (the final system was 1% DMSO). […]
After the incubation, the blank group was thawed on ice and transferred to the incubation plate. […] The peak areas of LPA18:2 and internal standard LPA17:0 were detected by LC-MSMS mass spectrometry.
The peak area ratio of LPA18:2 to internal standard LPA17:0 was calculated, and the generation inhibition rate of LPA18:2 was calculated according to the following formula: […]
According to the inhibition rate of different concentrations of the compound, the IC50 values of the compound were calculated for inhibition of ATX enzymatic activity in human plasma.

hERG channel [6] = biological target: T1, hERG channel; assay: cell-based
Description: as §2, §3, §4

[7] = In vivo pharmacokinetic assay in mice; settings: male, ICR, mouse, plasma
Description: as §1
In vivo pharmacokinetic assay in mice was performed, wherein the used mice were 18 male ICR mice weighing 20-25 g and fasted overnight. […] The rest of the procedure was performed in the same manner as in the pharmacokinetic assay in rats.

Autotaxin enzyme = Autotaxin enzyme (Homo sapiens (Human), UniProt Q13822); settings: read-out: IC50 against ATX enzymatic activity; Autotaxin Inhibitor Screening Assay Kit, 37° C., 30 min, OD405
Description: The inhibitory activity of the compound against the Autotaxin enzyme was detected using the Autotaxin Inhibitor Screening Assay Kit (Cayman, 700580). The compound to be tested was first prepared into 10 mM stock solution in DMSO solvent, and then serially diluted into 8 concentrations of compound with DMSO. Subsequently, 8 concentrations of compound were diluted to 19× compound working solution (with DMSO content of 1.9%) with an Autotaxin Assay buffer (1×) provided in the kit. Autotaxin Assay Reagent (10×) was taken out and diluted 10-fold with Autotaxin Assay Buffer (1×). The Autotaxin Substrate was taken out, and added with 1.2 mL of Autotaxin Assay Buffer (1×) for dissolving. The mixture was mixed well and then let stand at room temperature. In a 96-well plate, 150 μL of Autotaxin Assay Buffer (1×), 10 μL of diluted 19× compound working solution, 10 μL of Autotaxin Assay Reagent (1×), 20 μL of dissolved Autotaxin Substrate were added into wells at each concentration, and then the mixture was mixed well, incubated at 37° C. on a constant-temperature shaking shaker, and incubated in the dark for 30 min.

[8] = Thermodynamic solubility assay; format: physicochemical; settings: thermodynamic from solid
Description: The compounds were weighed out accurately, added to the prepared phosphate buffered saline at pH 7.4, FeSSIF solution at pH 5.8 and FaSSGF solution at pH 1.6 to prepare a solution at a concentration of 4 mg/mL, and the prepared solution was shaken at 1000 rpm for 1 h, and then incubated overnight at room temperature. The incubated solution was centrifuged at 12000 rpm for 10 min to remove undissolved particles, and the supernatant was transferred to a new centrifuge tube. After the supernatant was diluted properly, the supernatant was added with an acetonitrile solution containing an internal standard, and quantified by adopting a standard curve prepared by the same matrix.

Solid stability, 1 week = format: physicochemical; settings: for Purity (area %): HPLC; for Crystal form change: XRPD
Description: The crystal form A of hydrochloride, the crystal form A of fumarate, the crystal form A of benzenesulfonate and the free base crystal form A prepared repeatedly were placed at 25° C./60% RH and 40° C./75% RH for 1 week, and then the physical and chemical stability of the samples were tested by XRPD and HPLC. […] No significant purity decrease or crystal form transformation occurred in any of the other samples after being placed under 2 conditions for 1 week.

[9] = Polarizing microscope (PLM) image, particle size; format: physicochemical; settings: room temperature
Text: The polarizing microscope data are acquired by an Axio Lab. A1 upright microscope at room temperature.

[10] = Hygroscopicity by dynamic vapor sorption (DVS); format: physicochemical
Description: Dynamic vapor sorption (DVS) curves are acquired on a DVS Intrinsic in SMS (Surface Measurement System). The relative humidity at 25° C. is corrected with the deliquescence points of LiCl, Mg(NO3)2 and KCl.
Hygroscopicity of the crystal form A of hydrochloride, the crystal form A of fumarate, the crystal form A of benzenesulfonate and the free base crystal form A prepared repeatedly was evaluated using a dynamic vapor sorption (DVS) instrument. Starting at 0% relative humidity (0% RH), the test acquired the percentage change of mass of the sample when humidity changed (0% RH to 95% RH to 0% RH) at a constant temperature of 25° C.

[11] = Pharmacokinetic assay (crystal form) in mice; format: in vivo; settings: male, ICR, mouse, plasma, oral intragastric administration 10 mg/kg
Description: as §1, with “in mice” for “in rats”, “used mice” for “used rats”, “were 9” for “were 6”, “male ICR mice” for “male SD rats”, “weighing 20-25” for “weighing 180-240”, “overnight. 9 mice were taken and orally intragastrically administered with 10 mg/kg of the compound.” for “overnight.”

[12] = Dynamic solubility in water and three biological vehicles; format: physicochemical; settings: for Crystal form change: XRPD of solid; for pH: filtrate
Description: The dynamic solubility of the crystal form A of hydrochloride, the crystal form A of fumarate, the crystal form A of benzenesulfonate and the free base crystal form A prepared repeatedly was evaluated in water and three biological vehicles. […] After centrifugation of the samples at each time point (0.45 μm PTFE filter head), the filtrate was determined for HPLC concentration and pH, and the centrifuged solid samples were tested for XRPD.

[13] = Stability of crystal form on storage for 6 months; format: physicochemical; settings: 40° C./75% RH; 25° C./60% RH; 2° C. to 8° C.; polyethylene bag + aluminum foil bag
Text: (the aluminum foil bag is made of light-proof materials and can be protected from light; and the polyethylene bag and the aluminum foil bag are sealed when being packaged).

[14] = Solid stability evaluation at 60° C. for 24 h; format: physicochemical
Description: The crystal form A of benzenesulfonate of the compound of formula (I) was used as a starting sample, and 100 polymorph screening tests under different conditions were set. The screening method comprises the following steps: adding an anti-solvent, slowly volatilizing, slowly cooling, suspending and stirring (room temperature and 50° C.), circularly heating and cooling, gas-solid permeation, gas-liquid diffusion, inducing and grinding a high polymer. From the X-ray powder diffraction (XRPD) results of the isolated solid, only one polymorph of benzenesulfonate, i.e., the starting form A, was found. A partial evaluation was completed in the salt form screening stage, so only solid stability evaluation at 60° C. for 24 h was performed.

[15] = male, SD, rat, plasma, intravenous injection 1 mg/kg
[16] = male, SD, rat, plasma, oral intragastric administration 10 mg/kg
[17] = oral intragastric administration 10 mg/kg
[18] = SGF, 4 h, listed as Benzenesulfonate Crystal form
[19] = SGF, 24 h, listed as Benzenesulfonate Crystal form

C[C@H](Cc1cnn[nH]1)OCC(=O)N1Cc2cnc(NC3Cc4ccccc4C3)nc2C1 [Compound of formula (I), (R)-2-((1-(1H-1,2,3-triazol-5-yl)propan-2-yl)oxy)-1-(2-((2,3-dihydro-1H-inden-2-yl)amino)-5,7-dihydro-6H-pyrrolo[3,4-d]pyrimidin-6-yl)ethan-1-one]
T1/2 of the liver microsome stability relative to the control compound [1]: more than 2 times
Remaining percentage of compound after 30 min of incubation (%) ([1]; NADPH, 37° C.): 63.7%
half-life at 1.5 μM ([1]; NADPH, 37° C.): 53.6 min
hERG IC50/ATX IC50 (hERG channel [2]): 9.48/1.59 = 6.0
clearance (CL) in rats relative to that of the control compound [3]: about ⅙
AUC(0-t) [3, 15]: 3650 ng·h/mL
clearance [3, 15]: 4.67 mL/min/kg
half-life [3, 15]: 30 min
Vd ([3]; male, SD, rat, plasma, intravenous injection 1 mg/kg, read-out: Vz): 0.21 L/kg
AUC(0-t) [3, 16]: 20700 ng·h/mL
Cmax [3, 16]: 15800 ng/mL
Tmax [3, 16]: 19.8 min
half-life [3, 16]: 154 min
AUC0-t of oral administration relative to the control compound ([3]; oral): 4.2 times
Cmax of oral administration relative to the control compound ([3]; oral): 6.1 times
content of TGF-β1 in freshly cryopreserved lung tissue ([4]; ELISA, FIG. 44): significantly lower than that of the vehicle control group
content of TGF-β1 in the bronchoalveolar lavage fluid supernatant ([4]; ELISA, FIG. 44): significantly lower than that of the vehicle control group
weight loss of the animals ([4]; FIG. 43): significantly less than that of the control compound group
IC50 [5]: 4.7 nM
IC50 (hERG channel [6]): 9480 nM
AUC(0-t) ([7]; intravenous injection 1 mg/kg): 626 ng·h/mL
clearance ([7]; intravenous injection 1 mg/kg): 26.7 mL/min/kg
half-life ([7]; intravenous injection 1 mg/kg): 22.8 min
Vd ([7]; intravenous injection 1 mg/kg, read-out: Vz): 0.88 L/kg
AUC(0-t) [7, 17]: 6370 ng·h/mL
Cmax [7, 17]: 6360 ng/mL
Tmax [7, 17]: 15 min
half-life [7, 17]: 52.2 min
IC50 (Autotaxin enzyme): 1.59 nM
solubility ([8]; FaSSGF solution, fassgf or other biorelevant, heading: Solubility FaSSGF, FaSSGF, pH 1.6, room temperature overnight): 1.04 mg/mL
solubility ([8]; FeSSIF solution, FeSSIF, pH 5.8, room temperature overnight, read-out: Solubility FeSSIF (pH 5.8)): 260 mg/mL
solubility ([8]; phosphate buffered saline, aqueous buffer, PBS, pH 7.4, room temperature overnight, read-out: Solubility PBS (pH 7.4)): 107 mg/mL

C[C@H](Cc1cnn[nH]1)OCC(=O)N1Cc2cnc(NC3Cc4ccccc4C3)nc2C1 [Crystal form A of benzenesulfonate]
Purity/initial purity (%) (Solid stability, 1 week; 25° C./60% RH): 100.0%
Purity (area %) (Solid stability, 1 week; 25° C./60% RH): 99.35 area %
Crystal form change (Solid stability, 1 week; 25° C./60% RH): No
Purity/initial purity (%) (Solid stability, 1 week; 40° C./75% RH): 99.9%
Purity (area %) (Solid stability, 1 week; 40° C./75% RH): 99.20 area %
Crystal form change (Solid stability, 1 week; 40° C./75% RH): No
particle size [9]: less than 50 μm
After DVS test Whether the crystal form is changed ([10]; 0% RH to 95% RH to 0% RH, 25° C.): No
Hygroscopicity ([10]; DVS, 25° C.): Slightly
Vapor sorption (25° C./80% RH) ([10]; DVS, 25° C., 80% RH): 1.45%
DVS curve vapor sorption ([10]; at 0% RH to 80% RH): less than 1.46%
Risk evaluation ([10]; hygroscopicity evaluation): None
AUC(0-t) [11]: 7430 ng·h/mL
Cmax [11]: 6600 ng/mL
Tmax [11]: 30 min
half-life [11]: 71.4 min
Crystal form change ([12]; SGF, 1 h): No
Crystal form change [12, 18]: Clear
Crystal form change [12, 19]: Clear
pH ([12]; FaSSIF, 1 h, listed as Benzenesulfonate Crystal form): 6.0
pH ([12]; FaSSIF, 4 h, listed as Benzenesulfonate Crystal form): 6.0
pH ([12]; FaSSIF, 24 h, listed as Benzenesulfonate Crystal form): 6.0
pH ([12]; FeSSIF, 1 h, listed as Benzenesulfonate Crystal form): 5.0
pH ([12]; FeSSIF, 4 h, listed as Benzenesulfonate Crystal form): 5.0
pH ([12]; FeSSIF, 24 h, listed as Benzenesulfonate Crystal form): 5.0
pH ([12]; H2O, 1 h, listed as Benzenesulfonate Crystal form): 2.5
pH ([12]; H2O, 4 h, listed as Benzenesulfonate Crystal form): 2.5
pH ([12]; H2O, 24 h, listed as Benzenesulfonate Crystal form): 2.5
pH ([12]; SGF, 1 h, listed as Benzenesulfonate Crystal form): 1.9
pH [12, 18]: 1.9
pH [12, 19]: 1.9
solubility in each system compared with that of the free base crystal form A ([12]; water, SGF, FaSSIF, FeSSIF): significantly improved
crystal form after being stored for 6 months [13]: unchanged
stability after being stored for 6 months [13]: excellent stability
Purity (area %) [14]: 98.23 area %
Purity/initial purity (%) [14]: 100.0%
Crystal form change ([14]; XRPD): No
